Assay results reported in paper PMC3047710 (Chemmedchem, 2010).

Columns and labels:
Format in all cases: biochemical
[1] = molecular target: T1, TbDHFR (T. brucei dihydrofolate reductase) (Trypanosoma brucei, UniProt Q27783); assay: DHFR inhibition assay
[2] = molecular target: T2, HsDHFR (human DHFR) (Homo sapiens, UniProt P00374); assay: DHFR inhibition assay
T2 sequence (P00374 1-187): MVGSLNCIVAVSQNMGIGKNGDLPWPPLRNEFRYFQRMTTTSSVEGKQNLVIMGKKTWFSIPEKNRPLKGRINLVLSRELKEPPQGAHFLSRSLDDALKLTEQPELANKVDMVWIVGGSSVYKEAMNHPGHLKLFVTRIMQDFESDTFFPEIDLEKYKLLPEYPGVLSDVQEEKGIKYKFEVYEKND

[3] = molecular target: T1, TbDHFR (T. brucei dihydrofolate reductase); assay: DHFR inhibition assay; details: unreliable: sample contaminated with ~25% of compound 33
[4] = molecular target: T2, HsDHFR (human DHFR); assay: DHFR inhibition assay; details: unreliable: sample contaminated with ~25% of compound 33
[5] = molecular target: T3, endogenous PTR1 in clarified T. brucei lysate (Trypanosoma brucei, UniProt O76290); assay: HPLC-based PTR1 assay
T3 sequence (O76290 1-268): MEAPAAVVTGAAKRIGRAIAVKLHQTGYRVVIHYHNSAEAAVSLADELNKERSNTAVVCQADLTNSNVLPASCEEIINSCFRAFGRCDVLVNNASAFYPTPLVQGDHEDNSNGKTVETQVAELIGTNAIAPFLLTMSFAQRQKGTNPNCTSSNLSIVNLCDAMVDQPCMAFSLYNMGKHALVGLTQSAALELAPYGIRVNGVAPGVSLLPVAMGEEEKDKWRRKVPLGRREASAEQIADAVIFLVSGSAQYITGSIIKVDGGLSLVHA

[6] = molecular target: T4, TbPTR1 (T. brucei pteridine reductase 1) (Trypanosoma brucei, UniProt O76290); assay: HPLC-based PTR1 assay
T4 sequence (O76290 1-268): T3 sequence (O76290 1-268)

T1 sequence (Q27783 whole entry): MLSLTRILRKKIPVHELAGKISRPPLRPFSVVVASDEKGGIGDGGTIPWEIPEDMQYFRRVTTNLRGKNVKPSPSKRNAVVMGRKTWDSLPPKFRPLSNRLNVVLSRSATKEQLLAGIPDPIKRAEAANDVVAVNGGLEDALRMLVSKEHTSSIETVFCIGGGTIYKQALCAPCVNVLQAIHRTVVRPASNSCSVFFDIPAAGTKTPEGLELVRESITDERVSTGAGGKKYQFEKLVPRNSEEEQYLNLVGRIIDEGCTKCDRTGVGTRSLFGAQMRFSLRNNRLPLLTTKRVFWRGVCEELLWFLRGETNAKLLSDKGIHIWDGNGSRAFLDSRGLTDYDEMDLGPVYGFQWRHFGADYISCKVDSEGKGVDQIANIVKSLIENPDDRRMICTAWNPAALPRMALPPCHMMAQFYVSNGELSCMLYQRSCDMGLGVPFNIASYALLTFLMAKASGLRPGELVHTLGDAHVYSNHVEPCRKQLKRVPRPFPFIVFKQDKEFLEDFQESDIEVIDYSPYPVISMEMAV

| SMILES | IC50 [1] [µM] | IC50 [2] [µM] | TbDHFR IC50 [3] [µM] | HsDHFR IC50 [4] [µM] | IC50 [5] [µM] | IC50 [6] [µM] |
| --- | --- | --- | --- | --- | --- | --- |
| CCCOc1cccc2nc(N)n(Cc3ccc(Cl)c(Cl)c3)c12 [compound 30] | > 30 | > 50 | – | – | – | – |
| Cc1cc2nc(N)n(Cc3ccc(Cl)c(Cl)c3)c2cc1C [compound 34] | > 30 | > 30 | – | – | – | – |
| COc1cccc2nc(N)n(Cc3ccc(Cl)c(Cl)c3)c12 [compound 33] | > 30 | > 50 | – | – | – | – |
| Nc1nc2c(Cl)cccc2n1Cc1ccc(Cl)c(Cl)c1 [compound 24] | > 30 | > 50 | – | – | – | – |
| CCCOc1cccc2c1nc(N)n2Cc1ccc(Cl)c(Cl)c1 [compound 25] | > 30 | > 50 | – | – | – | – |
| Nc1nc2ccccc2n1Cc1ccc(Cl)c(Cl)c1 [compound 11] | > 50 | > 50 | – | – | – | – |
| COc1cccc2c1nc(N)n2Cc1ccc(Cl)c(Cl)c1 [compound 28] | – | – | > 30 | > 50 | – | – |
| Nc1nc2cccc(Cl)c2n1Cc1ccc(Cl)c(Cl)c1 [compound 29] | > 30 | > 50 | – | – | – | – |
| Nc1nc2cccc(OCc3ccccc3)c2n1Cc1ccc(Cl)c(Cl)c1 [compound 31] | > 50 | > 50 | – | – | – | – |
| Nc1nc2c(OCc3ccccc3)cccc2n1Cc1ccc(Cl)c(Cl)c1 [compound 26] | > 50 | > 50 | – | – | – | – |
| Nc1nc2c(-c3ccccc3)cccc2n1Cc1ccc(Cl)c(Cl)c1 [compound 27] | > 30 | > 30 | – | – | – | – |
| Nc1nc2cccc(-c3ccccc3)c2n1Cc1ccc(Cl)c(Cl)c1 [compound 32] | > 50 | > 50 | – | – | 0.00088 ± 0.00013 | 0.00099 ± 0.00013 |
